We go through 5 molecules from US20150025052A1, “Compositions and Methods for Inhibiting HSP90/HSP70 Machinery” (Georgia Regents Research Institute, Inc., priority 2013, published 2015).

For data set [1], the system named is NCI 60-cell panel. As to conditions: read-out: Growth Inhibition of 50% (GI50); cited from earlier work.
The test system of data set [2] is Hsp90 derived from transformed cells overexpressing HER-2 (BT474, N87, SKOV3 and SKBR3). Conditions: cited from earlier work.
In data set [3] the test system is LNCaP cells. The class given is cell-based.
The subject of data set [4] is MCF7 cells.
For data set [5] the following is noted: preclinical data; cited from earlier work.
In data set [6] the test system is Hsp90 client proteins (Her2, CDK4, ChK1, Raf-A, Akt, ILK, GR, PR, AR). The experiment in a line: Western blotting of Hsp90 client proteins in cancer cells. It is filed as cell-based. Conditions: 50, 100, 200 μM capsaicin; HeLa, MCF7, LNCaP cells. The method, then:
(§1) FIGS. 2A-2F are autoradiographs of composite images of Western immuno-staining blots. […] FIGS. 2D-E show the Hsp90 client proteins HER2, GR, PRB, CDK4, Chk1, Raf-A, Akt and ILK, and the chaperones Hsp70, 2;3, Hsc70, HOP, HDJ2 (Hsp40), p23, Hsp90α and Hsp90β in the presence of DMSO, 2.5 μM 17AAG or 50, 100 or 200 μM capsaicin in HeLa cells (FIG. 2D) or MCF7 cells (FIG. 2E), respectively. In all blots, 2.5 μM 17-AAG was used as a positive control for cellular degradation of several kinases and hormone receptor clients of Hsp90, Beta actin (β-actin) was used a loading control. FIG. 2F is an autoradiograph of a Western blot showing capsaicin altered Hsp70 multi-chaperone complexes in cells. LNCaP cells were treated with 200 μM capsaicin for 6 h and then lysed, and Hsp70 complexes were pulled down using an antibody against Hsp70 on Protein A-Sepharose beads. Western blotting was performed for Hsp70, Hsp40 (HDJ-2), and Hsp90β. Capsaicin reduced Hsp40 and Hsp90 binding to Hsp70. Mouse IgG was used as a control.
(§2) Cells were lysed with buffer A (10 mM Tris pH 8.0, 137 mM NaCl, 10% glycerol, 1% Nonident P-40) supplemented with protease inhibitor cocktail (Roche Applied Science catalog no. 11 836 170 001) on ice for 30 minutes, shaking every 5 minutes. Lysate was centrifuged at 16,000×g for 10 minutes. 10 μg of clarified lysates were run on SDS-PAGE (10% gel) and transferred to PVDF membrane. […]

Data set [7] deals with Hsp70 mRNA. Put plainly: Gene expression assay (RT-PCR) of Hsp70 mRNA in MCF7 cells. It is filed as cell-based.
Data set [8] deals with cancer cells (LNCaP, MCF7, HepG2, HeLa). Put plainly: Colony formation assay. As to conditions: 200 μM capsaicin for 24 h, 15 days growth. The class given is cell-based. The source says:
FIG. 3A is a line graph of absorbance at 495 nm (arbitrary units) versus Capsaicin dose (μM) of Hs578Bst and MCF7 cells treated with the indicated dose of capsaicin. FIG. 3B is a line graph of absorbance at 495 nm versus time of capsaicin treatment (hours) of Hs578Bst cells and MCF7 cells. Stippled line represents Hs578Bst cells and solid line represents MCF7 cells. FIGS. 3C-F are histograms showing colony number versus treatment with DMSO or Capsaicin in the following cell lines: LNCaP (FIG. 3C), MCF7 (FIG. 3D), HepG2 (FIG. 3E), and HeLa (FIG. 3F). Cells were treated with 200 μM capsaicin for 24 h. Adherent cells were then collected and plated (1000 cells per 10 cm dish) for further incubation. The standard deviation of three dishes is shown as error bars. The experiment was reproduced twice. FIG. 3G is an autoradiograph of cell lysates HeLa, MCF7 and LNCaP treated with 200 μM capsaicin for 24 h; cell lysates were made and Western blotted for p62/SQSTM1 and LC3II. β-actin was used as a loading control. LNCaP cells were treated with 50, 100 and 200 μM capsaicin for 24 h. this experiment was reproduced twice. […] DMSO was used as a control.
Cells were grown in 6-well tissue culture plates to 60% confluence and treated with 200 μM capsaicin or DMSO control for 24 h. […] Cells were fixed with 6% Glutaraldehyde and 0.5% Crystal Violet, and colonies that contained 50 cells were counted. […]

The subject of data set [9] is LC3II and p62/SQSTM1. Put plainly: Western blotting of autophagy markers. It is filed as cell-based.
For data set [10] the following is noted: 5 mg/kg by gavage, three days per week for 2-4 weeks; cited from earlier work.
The test system of data set [11] is Hsp70 (inducible form, Hsp70i). Put plainly: Western blotting of Hsp70 in cancer cells. It is filed as cell-based.
The conditions of data set [12]: in vivo; cited from earlier work.
For data set [13], the target named is Hsp70 (Homo sapiens, UniProt P0DMV8). The experiment in a line: Fluorescence emission assay with purified Hsp70. As to conditions: Hsp70 15 μM, capsaicin 7.5 μM, 1 h room temperature, excitation 266 nm. The class given is binding. Here is the method: (§3) FIG. 5A is a histogram showing the ratio of Hsp70 mRNA relative to β-actin in the presence of DMSO, 100 μM or 200 μM capsaicin (Cap) after RT-PCR. FIG. 5B is a graph of fluorescence emission spectra for capsaicin, Hsp70, Hsp70 with capsaicin (Hsp70+C), Hsp90, Hsp90 with capsaicin (Hsp90+C), Hsp40 and Hsp40 with capsaicin (Hsp40+C), at wavelengths between 290 and 440 nm. All chaperones were tested at 15 μM and capsaicin at 7.5 μM. Proteins were incubated for 1 h at room temp in the presence or absence of capsaicin. An excitation wavelength of 266 nm was used.
(§4) To determine the effect of molecular chaperones on the fluorescence emission of capsaicin, all chaperones were tested at 15 μM and capsaicin at 7.5 μM concentrations. Proteins were incubated for 1 h at room temperature in the presence or absence of capsaicin. A 96-well black plate and a SAFIRE-TECAN plate reader were used. The excitation wavelength was 266 nm.

Data set [14] has as its system Hsp40. Put plainly: Fluorescence emission assay with Hsp40. It is filed as binding. Conditions: Hsp40 15 μM, capsaicin 7.5 μM, excitation 266 nm. The method, then: as §3, §4
The test system of data set [15] is Hsp90. The experiment in a line: Fluorescence emission assay with Hsp90. Conditions: Hsp90 15 μM, capsaicin 7.5 μM, excitation 266 nm. The class given is binding. Here is the method:
as §3, §4

The subject of data set [16] is Hsp90α, Hsp90β, Hsp40, p23 and Hop. Put plainly: Western blotting of molecular chaperones in cancer cells. It is filed as cell-based. As to conditions: 50, 100, 200 μM capsaicin. The method, then:
as §1, §2

The subject of data set [17] is Hsp90/Hsp70 chaperoning machinery (rabbit reticulocyte lysate) with progesterone receptor. The experiment in a line: Progesterone receptor (PR) reconstitution assay: recovery of hormone binding activity of PR. The class given is biochemical.
Source text: To identify small molecule inhibitors of molecular chaperones, a high-throughput functional screen was developed based on the isoform A of progesterone receptor (PRA), a well-established physiological client of Hsp90, and using rabbit reticulocyte lysate (RRL) as a source of molecular chaperones. This comprehensive functional assay measured the recovery of hormone binding activity of PRA after mild heat treatment. Purified PR was adsorbed onto PR22 antibody bound to protein A that was absorbed on 96 well plates. 100 μl of RRL lysate and ATP regeneration system was added to each well. After incubation for 30 min at 30° C., 0.1 μM [3H]-progesterone (American Radiolabeled Chemicals, Inc #ART 0063) was added. Plates were incubated on ice for 2 h at 4° C. Complexes were then washed three times with 200 μl of reaction buffer (20 mM Tris/HCl, pH 7.5, 5 mM MgCl2, 2 mM DTT, 0.01% NP-40, 50 mM KCl and 5 mM ATP) and assessed for bound progesterone by liquid scintillation using PerkinElmer Microbeta plate reader.
PR complexes were reconstituted on a 96-well plate; the first eight samples contain the following internal controls: 1. Protein A alone, 2. Protein A+PR22, 3. Protein A+PR22+PR, 4. Protein A+PR22+PR+RRL, 5. Protein A+PR22+PR+RRL+17-AAG (20 μM), 6. Protein A+PR22+PR+RRL+Myrecetin (20 μM), 7. Protein A+PR22+PR+RRL+geldanamycin (20 μM), 8. Protein A+PR22+PR+RRL+gedunin (20 μM). […]
Data set [18] has as its system Hsc70 (constitutive form). The experiment in a line: Western blotting of Hsc70 in cancer cells. It is filed as cell-based. As to conditions: HeLa and MCF7 cells. The method, then: as §1, §2
For data set [19] the following is noted: purified capsaicin; cited from earlier work.
The test system of data set [20] is MCF7 cells. Put plainly: Microscopy (light, transmission electron) of capsaicin-treated MCF7 cells. The class given is cell-based.
Data set [21] has as its target T1, Hsp70 multi-chaperone complexes (Homo sapiens, UniProt P0DMV8).
T1 construct: endogenous in cells; host or cells: LNCaP
The experiment in a line: Hsp70 complex pull-down and Western blotting in LNCaP cells. The class given is cell-based. Conditions: 200 μM capsaicin, 6 h. Here is the method: as §1
FIG. 12 is an autoradiograph of LNCaP cells treated with 200 μM capsaicin for 6 h and then lysed and Western blotted for Hsp70, Hsp40 (HDJ-2), and Hsp90β. Capsaicin reduced Hsp40 and Hsp90 binding to Hsp70. Mouse IgG was used as a control.

For data set [22], the system named is HCT 116 colon cancer cells. Conditions: cited from earlier work.

Sequence of Hsp70 (P0DMV8 2-641 limits assumed): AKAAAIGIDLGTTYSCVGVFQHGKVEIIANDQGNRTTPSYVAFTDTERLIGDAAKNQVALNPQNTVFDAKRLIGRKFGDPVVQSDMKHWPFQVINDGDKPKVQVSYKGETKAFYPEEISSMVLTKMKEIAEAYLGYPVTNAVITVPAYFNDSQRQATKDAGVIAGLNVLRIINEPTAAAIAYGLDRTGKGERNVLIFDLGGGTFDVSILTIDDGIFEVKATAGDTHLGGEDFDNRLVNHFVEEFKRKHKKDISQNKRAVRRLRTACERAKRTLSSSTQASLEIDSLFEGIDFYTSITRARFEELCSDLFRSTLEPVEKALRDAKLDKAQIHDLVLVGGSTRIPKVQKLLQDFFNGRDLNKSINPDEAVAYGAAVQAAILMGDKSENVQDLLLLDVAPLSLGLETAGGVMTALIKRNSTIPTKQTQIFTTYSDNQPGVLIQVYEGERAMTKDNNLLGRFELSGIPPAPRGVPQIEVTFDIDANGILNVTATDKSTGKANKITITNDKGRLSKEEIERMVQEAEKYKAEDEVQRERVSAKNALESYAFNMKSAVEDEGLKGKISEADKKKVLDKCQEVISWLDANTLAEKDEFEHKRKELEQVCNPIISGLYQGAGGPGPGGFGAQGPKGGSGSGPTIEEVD
T1 sequence (P0DMV8 2-641 limits assumed, one chain of several): as the sequence (P0DMV8 2-641 limits assumed) above

Consider `C=CCNC1=C2C[C@@H](C)C[C@H](OC)[C@H](O)[C@@H](C)/C=C(\C)[C@H](OC(N)=O)[C@@H](OC)/C=C\C=C(/C)C(=O)NC(=CC1=O)C2=O` [17-AAG, 17-allylamino-17-demethoxygeldanamycin], for which, in data set [1], the 50% growth inhibitory concentration (GI50) was 120 nM. Besides, the IC50 in data set [2] (Hsp90 from HER-2 overexpressing cells or BT474 breast carcinoma cells) was 5 to 6 nM. The “higher affinity for Hsp90 derived from transformed cells” value in data set [2] (relative to non-tumor cells) is “more than 100 ×”. For the same molecule, the “cell killing (relative survival)” value in [3] is on record as “very little effect or no effect”. In [4], the “cytotoxicity (cell survival)” value is “minimal cytotoxicity”.

For `CO[C@H]1/C=C\C=C(/C)C(=O)NC2=CC(=O)C(NCCN(C)C)=C(C[C@@H](C)C[C@H](OC)[C@H](O)[C@@H](C)/C=C(\C)[C@@H]1OC(N)=O)C2=O` [17-DMAG, 17-Dimethylaminoethylamino-17-demethoxygeldanamycin], the GI50 in [1] is 51 nM.

Consider `CC(C)c1cc(-c2n[nH]c(=O)n2-c2ccc3c(ccn3C)c2)c(O)cc1O` [Ganetespib], for which the “cardiac or liver toxicity” value in data set [5] was “no evidence of cardiac or liver toxicity”.

For `COc1cc(CNC(=O)CCCC/C=C/C(C)C)ccc1O` [capsaicin, 8-Methyl-N-vanillyl-trans-6-nonenamide], the “cellular degradation of Hsp90 client proteins” value in data set [6] is on record as “caused cellular degradation”. Moreover, the “level of Hsp70 mRNA” value in data set [7] (100 or 200 μM capsaicin, 24 h (FIG. 5A)) was “No change”. Also, the “level of Hsp70 mRNA” value in data set [7] (capsaicin 200 μM, 17-AAG 200 nM (FIG. 7A)) is recorded as “slightly increased”. Besides, the “ability of cancer cells to form colonies” value in data set [8] was “efficiently reduces”. Besides, the LC3II modification entry in [9] (HeLa cells, 200 μM capsaicin 24 h) is on record as “no LC3II modification”. Besides, the LC3B modification result in [9] (LNCaP cells, 50, 100, 200 μM capsaicin 24 h) is “concentration-dependent induction”. Further, in [9] (MCF7 and LNCaP cells, 200 μM capsaicin 24 h), the LC3II levels entry was “significantly increased”. For the same molecule, the p62/SQSTM1 protein level result in [9] (capsaicin treatment, Western blot) is given as “accumulation”. For the same molecule, the toxicity symptoms result in [10] was “No toxicity symptoms were observed”. The “level of Hsp70” value in data set [11] (HeLa and MCF7 cells) is recorded as “reduced the level of Hsp70”. In [11] (HeLa, LNCaP, MCF7, Hs578T and MDA-MB-231, 24 h), the “degradation of Hsp70” value is listed as “reproducibly caused degradation”. Moreover, the “level of Hsp70 after 6 h of treatment” value in data set [11] (LNCaP cells, 200 μM capsaicin, 6 h (FIG. 12)) is on record as “not significantly down”. For the same molecule, in data set [11] (capsaicin 200 μM (alone or with 17-AAG) plus 3MA 5 mM, 6 h), the “stabilization of Hsp70 protein by autophagy inhibitor 3MA” value is given as “almost fully stabilizes”. Moreover, the “rescue of Hsp70 protein by proteasome inhibitor MG132” value in data set [11] (capsaicin 200 μM plus MG132 20 μM, 6 h) is “does not rescue”. In data set [11] (capsaicin 200 μM, 17-AAG 200 nM (FIG. 7C)), the Hsp70 protein level result is reported as “decreased”. The pharmacokinetic half-life entry in data set [12] is reported as “approximately 24 hours”. Further, in [13], the “capsaicin fluorescence emission in presence of Hsp70” value is listed as “completely quenched”. In [14], the “capsaicin fluorescence emission in presence of Hsp40” value is on record as “may not significantly change”. Besides, the “capsaicin fluorescence emission in presence of Hsp90” value in data set [15] was “may not significantly change”. For the same molecule, in [16], the “expression level of molecular chaperones Hsp90α, Hsp90β, Hsp40, p23 and Hop” value is on record as “did not affect”. Further, the “cell killing (relative survival)” value in data set [3] was “very little effect or no effect”. For the same molecule, the “blocking the hormone-binding activity of PR” value in [17] (rescreened in triplicates at 20 μM final concentration) is reported as “about 40%”. For the same molecule, the “modulation of the Hsp90 chaperoning activity” value in [17] (screen of NIH Clinical Collection library (FIG. 1)) is “efficient and reproducible modulation”. Besides, in data set [4], the “cell death of MCF7 cancer cells” value is on record as “caused cell death” and the “cytotoxicity (cell survival)” value was “minimal cytotoxicity”. For the same molecule, in data set [18], the “level of Hsc70” value is listed as “did not change”. Also, in [19], the “solubility in alcohol, fats and oils” value is “freely soluble”; the “solubility in cold water” value was “insoluble”. For the same molecule, the mitophagy entry in data set [20] is “induced mitophagy”. Also, in data set [21], the “Hsp40 and Hsp90 binding to Hsp70” value is listed as “reduced”.

Take `COc1cc(CNC(=O)CCCCCCC(C)C)ccc1O` [dihydrocapsaicin]: the mitoautophagy result in [22] is reported as “induces mitoautophagy”.
